Laboratory results taken from ChEMBL document CHEMBL3885881, “DrugMatrix”.

Species on record: Rattus norvegicus
Experiment: DrugMatrix - Regimen: Daily Repeat
Format: toxicity, organism-based, Sprague-Dawley
Parameters: regimen Daily Repeat, gender Male, age 6-8 weeks
Details: in vivo, po, route oral GAVAGE, vehicle 100 % WATER; for ABSOLUTE BASOPHIL / ABSOLUTE EOSINOPHIL / ABSOLUTE LYMPHOCYTE / ABSOLUTE MONOCYTE / ABSOLUTE SEGMENTED NEUTROPHIL / BASOPHIL / EOSINOPHIL / ERYTHROCYTE COUNT / HEMATOCRIT / HEMOGLOBIN / LEUKOCYTE COUNT / LYMPHOCYTE / MEAN CORPUSCULAR HEMOGLOBIN / MEAN CORPUSCULAR HEMOGLOBIN CONCENTRATION / MEAN CORPUSCULAR VOLUME / MONOCYTE / NEUTROPHIL / NUCLEATED RED BLOOD CELLS / PLATELET COUNT: tissue Blood; for ALANINE AMINOTRANSFERASE / ALBUMIN / ALKALINE PHOSPHATASE / ASPARTATE AMINOTRANSFERASE / BLOOD UREA NITROGEN / CARBON DIOXIDE / CHLORIDE / CHOLESTEROL / CREATINE PHOSPHOKINASE / CREATININE / GLUCOSE / LACTATE DEHYDROGENASE / LIPASE / PHOSPHORUS / POTASSIUM / SODIUM / TOTAL BILIRUBIN / TOTAL PROTEIN / URIC ACID: tissue Plasma
[1] = 20 mg/kg, 120 h, dose level Low, time 5 day
[2] = 70 mg/kg, 72 h, dose level High, time 3 day
[3] = 70 mg/kg, 120 h, dose level High, time 5 day

For `C=CCC1(C(C)CCC)C(=O)NC(=O)NC1=O` (centres undefined) [SECOBARBITAL], the “ABSOLUTE BASOPHIL” value [1] was 0 CELLS/uL, the “ABSOLUTE EOSINOPHIL” value [1] was 32 CELLS/uL and the “ABSOLUTE LYMPHOCYTE” value [1] was 7003.67 CELLS/uL. The “ABSOLUTE MONOCYTE” value [1] was 32 CELLS/uL, the “ABSOLUTE SEGMENTED NEUTROPHIL” value [1] was 565.67 CELLS/uL and the BASOPHIL [1] was 0%. The EOSINOPHIL [1] was 0.33%, the “ERYTHROCYTE COUNT” value [1] was 5.26 x10E6/uL and the HEMATOCRIT [1] was 32.97%. The HEMOGLOBIN [1] was 12.83 G/DL, the “LEUKOCYTE COUNT” value [1] was 7.63 x10E3/uL and the LYMPHOCYTE [1] was 92%. For the same molecule, the “MEAN CORPUSCULAR HEMOGLOBIN” value [1] was 24.43 pg, the “MEAN CORPUSCULAR HEMOGLOBIN CONCENTRATION” value [1] was 38.97 G/DL and the “MEAN CORPUSCULAR VOLUME” value [1] was 62.7 fL. The MONOCYTE [1] was 0.33%, the NEUTROPHIL [1] was 7.33% and the “NUCLEATED RED BLOOD CELLS” value [1] was 0.33 /100WBC. The “PLATELET COUNT” value [1] was 1182 x10E3/uL, the “ALANINE AMINOTRANSFERASE” value [1] was 49.33 u/L and the ALBUMIN [1] was 3.97 G/DL. The “ALKALINE PHOSPHATASE” value [1] was 382 u/L, the “ASPARTATE AMINOTRANSFERASE” value [1] was 77.67 u/L and the “BLOOD UREA NITROGEN” value [1] was 13.67 mg/dL. The “CARBON DIOXIDE” value [1] was 34 mmol/L, the CHLORIDE [1] was 99 MEQ/L and the CHOLESTEROL [1] was 77.33 mg/dL. The “CREATINE PHOSPHOKINASE” value [1] was 254 u/L, the CREATININE [1] was 0.16 mg/dL and the GLUCOSE [1] was 144 mg/dL. The “LACTATE DEHYDROGENASE” value [1] was 142.33 u/L, the LIPASE [1] was 9 u/L and the PHOSPHORUS [1] was 11.07 mg/dL. The POTASSIUM [1] was 5.94 MEQ/L, the SODIUM [1] was 144.5 MEQ/L and the “TOTAL BILIRUBIN” value [1] was 0.17 mg/dL. The “TOTAL PROTEIN” value [1] was 5.87 G/DL, the “URIC ACID” value [1] was 0.4 mg/dL and the “ABSOLUTE BASOPHIL” value [2] was 0 CELLS/uL. For the same molecule, the “ABSOLUTE EOSINOPHIL” value [2] was 0 CELLS/uL, the “ABSOLUTE LYMPHOCYTE” value [2] was 6560.67 CELLS/uL and the “ABSOLUTE MONOCYTE” value [2] was 45.33 CELLS/uL. For the same molecule, the “ABSOLUTE SEGMENTED NEUTROPHIL” value [2] was 794 CELLS/uL, the BASOPHIL [2] was 0% and the EOSINOPHIL [2] was 0%. The “ERYTHROCYTE COUNT” value [2] was 5.13 x10E6/uL, the HEMATOCRIT [2] was 31.93% and the HEMOGLOBIN [2] was 12.3 G/DL. The “LEUKOCYTE COUNT” value [2] was 7.4 x10E3/uL, the LYMPHOCYTE [2] was 88.67% and the “MEAN CORPUSCULAR HEMOGLOBIN” value [2] was 24 pg. The “MEAN CORPUSCULAR HEMOGLOBIN CONCENTRATION” value [2] was 38.53 G/DL, the “MEAN CORPUSCULAR VOLUME” value [2] was 62.27 fL and the MONOCYTE [2] was 0.67%. For the same molecule, the NEUTROPHIL [2] was 10.67%, the “NUCLEATED RED BLOOD CELLS” value [2] was 0.33 /100WBC and the “PLATELET COUNT” value [2] was 827 x10E3/uL. The “ALANINE AMINOTRANSFERASE” value [2] was 56.67 u/L, the ALBUMIN [2] was 4.03 G/DL and the “ALKALINE PHOSPHATASE” value [2] was 339 u/L. For the same molecule, the “ASPARTATE AMINOTRANSFERASE” value [2] was 83 u/L, the “BLOOD UREA NITROGEN” value [2] was 12 mg/dL and the “CARBON DIOXIDE” value [2] was 34.67 mmol/L. The CHLORIDE [2] was 98.67 MEQ/L, the CHOLESTEROL [2] was 74.67 mg/dL and the “CREATINE PHOSPHOKINASE” value [2] was 397.33 u/L. The CREATININE [2] was 0.11 mg/dL, the GLUCOSE [2] was 142.33 mg/dL and the “LACTATE DEHYDROGENASE” value [2] was 178.33 u/L. The LIPASE [2] was 9.67 u/L, the PHOSPHORUS [2] was 11.4 mg/dL and the POTASSIUM [2] was 6.11 MEQ/L. For the same molecule, the SODIUM [2] was 143 MEQ/L, the “TOTAL BILIRUBIN” value [2] was 0.17 mg/dL and the “TOTAL PROTEIN” value [2] was 5.87 G/DL. For the same molecule, the “URIC ACID” value [2] was 0.63 mg/dL, the “ABSOLUTE BASOPHIL” value [3] was 0 CELLS/uL and the “ABSOLUTE EOSINOPHIL” value [3] was 40.33 CELLS/uL. The “ABSOLUTE LYMPHOCYTE” value [3] was 5577 CELLS/uL, the “ABSOLUTE MONOCYTE” value [3] was 23 CELLS/uL and the “ABSOLUTE SEGMENTED NEUTROPHIL” value [3] was 693 CELLS/uL. For the same molecule, the BASOPHIL [3] was 0%, the EOSINOPHIL [3] was 0.67% and the “ERYTHROCYTE COUNT” value [3] was 5.58 x10E6/uL. For the same molecule, the HEMATOCRIT [3] was 33.8%, the HEMOGLOBIN [3] was 13.07 G/DL and the “LEUKOCYTE COUNT” value [3] was 6.33 x10E3/uL. The LYMPHOCYTE [3] was 88%, the “MEAN CORPUSCULAR HEMOGLOBIN” value [3] was 23.4 pg and the “MEAN CORPUSCULAR HEMOGLOBIN CONCENTRATION” value [3] was 38.67 G/DL. The “MEAN CORPUSCULAR VOLUME” value [3] was 60.5 fL, the MONOCYTE [3] was 0.33% and the NEUTROPHIL [3] was 11%. For the same molecule, the “NUCLEATED RED BLOOD CELLS” value [3] was 0.33 /100WBC, the “PLATELET COUNT” value [3] was 1210.33 x10E3/uL and the “ALANINE AMINOTRANSFERASE” value [3] was 59.33 u/L. The ALBUMIN [3] was 4.03 G/DL, the “ALKALINE PHOSPHATASE” value [3] was 373.67 u/L and the “ASPARTATE AMINOTRANSFERASE” value [3] was 85.33 u/L. For the same molecule, the “BLOOD UREA NITROGEN” value [3] was 15.33 mg/dL, the “CARBON DIOXIDE” value [3] was 32.33 mmol/L and the CHLORIDE [3] was 100 MEQ/L. The CHOLESTEROL [3] was 63.33 mg/dL, the “CREATINE PHOSPHOKINASE” value [3] was 260.67 u/L and the CREATININE [3] was 0.13 mg/dL. For the same molecule, the GLUCOSE [3] was 147 mg/dL, the “LACTATE DEHYDROGENASE” value [3] was 127.67 u/L and the LIPASE [3] was 9 u/L. For the same molecule, the PHOSPHORUS [3] was 10.93 mg/dL, the POTASSIUM [3] was 5.66 MEQ/L and the SODIUM [3] was 145.65 MEQ/L. The “TOTAL BILIRUBIN” value [3] was 0.1 mg/dL, the “TOTAL PROTEIN” value [3] was 5.8 G/DL and the “URIC ACID” value [3] was 0.73 mg/dL.
